Experimental data from patent US20060069132A1, “Azolecarboxamide herbicides” (priority 2004, published 2006).

Key:
barnyardgrass [1] = assay: Test A pre-/postemergence herbicide test; type: in vivo, Echinochloa crus-galli
Procedure, shortened: (§1)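 Plants are held in greenhouse about ten days after treatment, then compared with untreated controls and scored 0 (no effect) to 100 (complete control). Preemergence dosing is a directed soil spray on sown sandy loam; postemergence dosing is spray to runoff at 2–10 cm height.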

large crabgrass [2] = assay: Test A pre-/postemergence herbicide test; type: in vivo, Digitaria sanguinalis
Procedure, shortened: as §1

giant foxtail [3] = assay: Test A pre-/postemergence herbicide test; type: in vivo, Setaria faberi
Procedure, shortened: as §1

morningglory [4] = assay: Test A pre-/postemergence herbicide test; type: in vivo, Ipomoea spp.
Procedure, shortened: as §1

redroot pigweed = assay: Test A pre-/postemergence herbicide test; type: in vivo, Amaranthus retroflexus
Procedure, shortened: as §1

velvetleaf [5] = assay: Test A pre-/postemergence herbicide test; type: in vivo, Abutilon theophrasti
Procedure, shortened: as §1

barnyardgrass [6] = assay: Test B pre-/postemergence herbicide test; type: in vivo, Echinochloa crus-galli
Procedure, shortened: (§2)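 Response was scored visually 13 to 15 days after treatment against untreated greenhouse controls, 0 meaning no effect and 100 complete control. Formulations (solvent mixture plus surfactant) went onto soil after planting, onto foliage of 1- to 4-leaf plants, and onto 2-leaf plants in a flooded paddy set including rice and barnyardgrass.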

Surinam grass = assay: Test B pre-/postemergence herbicide test; type: in vivo, Urochloa decumbens
Procedure, shortened: (§3)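 Evaluation is visual, comparing treated with control plants on a scale where 0 means no effect and 100 means full control. Treatments were preemergence, or postemergence on seedlings 2–18 cm tall, and held 13–15 days in the greenhouse.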

cocklebur = assay: Test B pre-/postemergence herbicide test; type: in vivo, Xanthium strumarium
Procedure, shortened: as §2

corn = assay: Test B pre-/postemergence herbicide test; type: in vivo, Zea mays
Procedure, shortened: as §3

large crabgrass [7] = assay: Test B pre-/postemergence herbicide test; type: in vivo, Digitaria sanguinalis
Procedure, shortened: as §3

giant foxtail [8] = assay: Test B pre-/postemergence herbicide test; type: in vivo, Setaria faberi
Procedure, shortened: as §3

lambsquarters = assay: Test B pre-/postemergence herbicide test; type: in vivo, Chenopodium album
Procedure, shortened: as §3

morningglory [9] = assay: Test B pre-/postemergence herbicide test; type: in vivo, Ipomoea coccinea
Procedure, shortened: as §2

pigweed = assay: Test B pre-/postemergence herbicide test; type: in vivo, Amaranthus retroflexus
Procedure, shortened: as §3

velvetleaf [10] = assay: Test B pre-/postemergence herbicide test; type: in vivo, Abutilon theophrasti
Procedure, shortened: as §3

blackgrass = assay: Test B postemergence herbicide test; type: in vivo, Alopecurus myosuroides; details: scale 0 (no effect) to 100 (complete control)
Procedure, shortened: (§4)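 Visual control ratings, 0–100 versus untreated controls, taken after 13 to 15 days in the greenhouse. Blackgrass received a postemergence spray at the 1- to 4-leaf stage (2–18 cm); ducksalad, umbrella sedge and barnyardgrass were flooded-paddy treated at 2 leaves.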

wheat = assay: Test B postemergence herbicide test; type: in vivo, Triticum aestivum; set-up: key to Wheat plant response rating: 0 = no effect, 100 = complete control; details: scale 0 (no effect) to 100 (complete control)
Procedure, shortened: (§5)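 After treating 2-leaf paddy plants or 2–18 cm postemergence plants (1 to 4 leaves) with formulated chemical, researchers kept them in a greenhouse for 13–15 days. Effects were judged visually versus controls: 0 indicates none, 100 total control.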

wild oat = assay: Test B postemergence herbicide test; type: in vivo, Avena fatua; details: scale 0 (no effect) to 100 (complete control)
Procedure, shortened: as §5

rice = assay: Test B flooded paddy test; type: in vivo, Oryza sativa; details: 1000 g ai/ha, visual rating, scale 0 to 100 (0 no effect, 100 complete control), 13 to 15 days
Procedure, shortened: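 Each value is a visual 0–100 response rating taken against controls 13 to 15 days after treatment in the greenhouse. Plants received formulated chemical postemergence at the 1- to 4-leaf stage or, in flooded paddy, at the 2-leaf stage.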

[11] = tested on: small flower umbrella sedge; assay: Test B flooded paddy test; type: in vivo, Cyperus difformis; details: 1000 g ai/ha, visual rating, scale 0 to 100 (0 no effect, 100 complete control), 13 to 15 days
Procedure, shortened: as §4

ducksalad = assay: Test B flooded paddy test; type: in vivo, Heteranthera limosa; details: 1000 g ai/ha, visual rating, scale 0 to 100 (0 no effect, 100 complete control), 13 to 15 days
Procedure, shortened: as §4

barnyardgrass [12] = assay: Test B flooded paddy test; type: in vivo, Echinochloa crus-galli; details: 1000 g ai/ha, visual rating, scale 0 to 100 (0 no effect, 100 complete control), 13 to 15 days
Procedure, shortened: as §4

[13] = Postemergence, 500 g ai/ha, 0 to 100 scale, 0 no effect, 100 complete control
[14] = Postemergence, 2000 g ai/ha, 0 to 100 scale, 0 no effect, 100 complete control
[15] = Preemergence, 500 g ai/ha, visual rating, 0 to 100 scale (0 no effect, 100 complete control)
[16] = Preemergence, 2000 g ai/ha, visual rating, 0 to 100 scale (0 no effect, 100 complete control)
[17] = 500 g ai/ha, visual rating 0-100, 0 no effect, 100 complete control, preemergence
[18] = Postemergence, 500 g ai/ha, visual rating after 13 to 15 days, scale 0 (no effect) to 100 (complete control)
[19] = postemergence, 125 g ai/ha, visual rating, scale 0 (no effect) to 100 (complete control)
[20] = preemergence, 125 g ai/ha, 0 to 100 scale, 0 is no effect, 100 is complete control
[21] = Postemergence, 500 g ai/ha, visual rating after 13 to 15 days
[22] = postemergence, 125 g ai/ha, visual rating

CC(=NO)c1cccc(NC(=O)c2cc(C(C)(C)C)nn2C)c1 [Compound 107]
Barnyardgrass plant response rating (barnyardgrass [1]; [13]): 20
Plant response rating, Barnyardgrass (barnyardgrass [1]; [14]): 55
Barnyardgrass plant response rating (barnyardgrass [1]; [15]): 0
Barnyardgrass plant response rating (barnyardgrass [1]; [16]): 35
Crabgrass, Large plant response rating (large crabgrass [2]; [13]): 25
Plant response rating, Crabgrass, Large (large crabgrass [2]; [14]): 40
Crabgrass, Large plant response rating (large crabgrass [2]; [15]): 65
Crabgrass, Large plant response rating (large crabgrass [2]; [16]): 90
Foxtail, Giant plant response rating (giant foxtail [3]; [13]): 20
Plant response rating, Foxtail, Giant (giant foxtail [3]; [14]): 35
Foxtail, Giant plant response rating (giant foxtail [3]; [15]): 10
Foxtail, Giant plant response rating (giant foxtail [3]; [16]): 80
Morningglory plant response rating (morningglory [4]; [13]): 30
Plant response rating, Morningglory (morningglory [4]; [14]): 40
Morningglory plant response rating (morningglory [4]; [15]): 95
Morningglory plant response rating (morningglory [4]; [16]): 100
Pigweed plant response rating (redroot pigweed; [13]): 95
Plant response rating, Pigweed (redroot pigweed; [14]): 100
Pigweed plant response rating (redroot pigweed; [15]): 35
Pigweed plant response rating (redroot pigweed; [16]): 95
Velvetleaf plant response rating (velvetleaf [5]; [13]): 0
Plant response rating, Velvetleaf (velvetleaf [5]; [14]): 0
Velvetleaf plant response rating (velvetleaf [5]; [15]): 0
Velvetleaf plant response rating (velvetleaf [5]; [16]): 0
Plant response rating, Barnyardgrass (barnyardgrass [6]; [17]): 0
Plant response rating, Barnyardgrass (barnyardgrass [6]; [18]): 0
Barnyardgrass plant response rating (barnyardgrass [6]; [19]): 0
Plant response rating, Barnyardgrass (barnyardgrass [6]; [20]): 0
Plant response rating, Surinam Grass (Surinam grass; [17]): 10
Plant response rating, Surinam Grass (Surinam grass; [18]): 10
Surinam Grass plant response rating (Surinam grass; [19]): 10
Plant response rating, Surinam Grass (Surinam grass; [20]): 0
Plant response rating, Cocklebur (cocklebur; [17]): 0
Plant response rating, Cocklebur (cocklebur; [18]): 0
Cocklebur plant response rating (cocklebur; [19]): 0
Plant response rating, Cocklebur (cocklebur; [20]): 0
Plant response rating, Corn (corn; [17]): 0
Plant response rating, Corn (corn; [18]): 0
Corn plant response rating (corn; [19]): 0
Plant response rating, Corn (corn; [20]): 0
Plant response rating, Crabgrass, Large (large crabgrass [7]; [17]): 10
Plant response rating, Crabgrass, Large (large crabgrass [7]; [18]): 0
Crabgrass, Large plant response rating (large crabgrass [7]; [19]): 0
Plant response rating, Crabgrass, Large (large crabgrass [7]; [20]): 0
Plant response rating, Foxtail, Giant (giant foxtail [8]; [17]): 0
Plant response rating, Foxtail, Giant (giant foxtail [8]; [18]): 0
Foxtail, Giant plant response rating (giant foxtail [8]; [19]): 0
Plant response rating, Foxtail, Giant (giant foxtail [8]; [20]): 0
Plant response rating, Lambsquarters (lambsquarters; [17]): 30
Plant response rating, Lambsquarters (lambsquarters; [18]): 20
Lambsquarters plant response rating (lambsquarters; [19]): 10
Plant response rating, Lambsquarters (lambsquarters; [20]): 0
Plant response rating, Morningglory (morningglory [9]; [17]): 10
Plant response rating, Morningglory (morningglory [9]; [18]): 0
Morningglory plant response rating (morningglory [9]; [19]): 0
Plant response rating, Morningglory (morningglory [9]; [20]): 0
Plant response rating, Pigweed (pigweed; [17]): 0
Plant response rating, Pigweed (pigweed; [18]): 10
Pigweed plant response rating (pigweed; [19]): 0
Plant response rating, Pigweed (pigweed; [20]): 0
Plant response rating, Velvetleaf (velvetleaf [10]; [17]): 0
Plant response rating, Velvetleaf (velvetleaf [10]; [18]): 0
Velvetleaf plant response rating (velvetleaf [10]; [19]): 0
Plant response rating, Velvetleaf (velvetleaf [10]; [20]): 0
Plant response rating, Blackgrass (blackgrass; [21]): 0
Blackgrass plant response rating (blackgrass; [22]): 0
Plant response rating, Wheat (wheat; [21]): 0
Wheat plant response rating (wheat; [22]): 0
Plant response rating, Oat, Wild (wild oat; [21]): 0
Oat, Wild plant response rating (wild oat; [22]): 0
Rice plant response rating (rice): 0
Sedge, Umbrella plant response rating [11]: 60
Ducksalad plant response rating (ducksalad): 60
Barnyardgrass plant response rating (barnyardgrass [12]): 0
